Assay results: US12421212B2, “Substituted benzenecarboxamides as IL-17A modulators” (DiCE Alpha, Inc., priority 2019, dated 2025)

Molecular target: T1, IL-17A/A (Homo sapiens, UniProt Q16552)
T1 construct: purchased Genscript Z03228
T1 sequence (Q16552 24-155): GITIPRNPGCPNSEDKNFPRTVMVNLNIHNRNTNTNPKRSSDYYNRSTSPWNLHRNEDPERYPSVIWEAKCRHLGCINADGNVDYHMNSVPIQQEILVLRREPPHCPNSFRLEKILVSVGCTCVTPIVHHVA
Test: IL-17A/A HEK-Blue Cell Assay
Format: cell-based
Conditions: HEK-Blue IL-17A reporter cell line, SEAP readout at A630, 20 hours incubation with IL-17A/A, top concentration 10 uM, 1 uM or 0.3 uM; for IC50: read-out: IL-17A/A inhibition (pIC50) (converted)

CCC(=O)N[C@@H](C(=O)N1CCC(F)(F)CC1)[C@@H](C)c1ccc(NC(=O)[C@@H](NC(=O)c2ccnn2CC)[C@H]2CC[C@H](C)CC2)c(F)c1 [Compound 369]
IC50: 10 to 100 nM

CCC(=O)N[C@@H](C(=O)N1CCC(C)CC1)[C@@H](C)c1ccc(NC(=O)[C@@H](NC(=O)c2ccnn2CC)[C@H]2CC[C@H](C)CC2)c(F)c1 [Compound 370]
IC50: 10 to 100 nM

CCC(=O)N[C@@H](C(=O)N1CCSCC1)[C@@H](C)c1ccc(NC(=O)[C@@H](NC(=O)c2ccnn2CC)[C@H]2CC[C@H](C)CC2)c(F)c1 [Compound 371]
IC50: 10 to 100 nM

CCC(=O)N[C@@H](C(=O)N1CCC(Oc2ccccc2)CC1)[C@@H](C)c1ccc(NC(=O)[C@@H](NC(=O)c2ccnn2CC)[C@H]2CC[C@H](C)CC2)c(F)c1 [Compound 372]
IC50: 10 to 100 nM

CCC(=O)N[C@@H](C(=O)N1CC2(C1)CC(F)(F)C2)[C@@H](C)c1ccc(NC(=O)[C@@H](NC(=O)c2ccnn2CC)[C@H]2CC[C@H](C)CC2)c(F)c1 [Compound 373]
IC50: 10 to 100 nM

CCC(=O)N[C@@H](C(=O)N1CCC(O)CC1)[C@@H](C)c1ccc(NC(=O)[C@@H](NC(=O)c2ccnn2CC)[C@H]2CC[C@H](C)CC2)c(F)c1 [Compound 374]
IC50: 10 to 100 nM

CCC(=O)N[C@@H](C(=O)N1CCC(C)CC1)[C@@H](C)c1ccc(NC(=O)[C@@H](NC(=O)c2ccnn2C2CCCC2)[C@H]2CC[C@H](C)CC2)c(F)c1 [Compound 375]
IC50: 10 to 100 nM

CCC(=O)N[C@@H](C(=O)N1CCC(C)(O)CC1)[C@@H](C)c1ccc(NC(=O)[C@@H](NC(=O)C(F)(F)c2nc(C)cs2)[C@H]2CC[C@H](C)CC2)c(F)c1 [Compound 376]
IC50: 10 to 100 nM

CCC(=O)N[C@@H](C(=O)N1CCC(C)(O)CC1)[C@@H](C)c1ccc(NC(=O)[C@@H](NC(=O)c2ccnn2C(C)C)[C@H]2CC[C@H](C)CC2)c(F)c1 [Compound 377]
IC50: 10 to 100 nM

CCC(=O)N[C@@H](C(=O)N1CCC(C)(O)CC1)[C@@H](C)c1ccc(NC(=O)[C@@H](NC(=O)C(F)(F)c2cncs2)[C@H]2CC[C@H](C)CC2)c(F)c1 [Compound 378]
IC50: 10 to 100 nM

C[C@@H](c1ccc(NC(=O)[C@@H](NC(=O)c2ccnn2C2CCCC2)[C@H]2CC[C@H](C)CC2)c(F)c1)[C@@H](NC(=O)C1(F)CC1)C(=O)N1CCOCC1 [Compound 380]
IC50: 10 to 100 nM

CCn1nccc1C(=O)N[C@H](C(=O)Nc1ccc([C@H](C)[C@@H](NC(=O)c2cnns2)C(=O)N2CCOCC2)cc1F)[C@H]1CC[C@H](C)CC1 [Compound 381]
IC50: 10 to 100 nM

CCC(=O)N[C@H](Cc1ccc(NC(=O)[C@@H](NC(=O)c2ccnn2CC)C2CCCCC2)c(F)c1)C(=O)N1CCC(C)(O)CC1 [Compound 382]
IC50: 10 to 100 nM

C[C@@H](c1ccc(NC(=O)[C@@H](NC(=O)C(F)(F)c2cccc(C#N)c2)C2CCCCCC2)c(F)c1)[C@@H](O)C(=O)N1CCN(C)CC1 [Compound 383]
IC50: 10 to 100 nM

CCn1nccc1C(=O)N[C@H](C(=O)Nc1ccc([C@H](C)[C@@H](NC(=O)c2cnns2)C(=O)N2CCN(C)CC2)cc1F)[C@H]1CC[C@H](C)CC1 [Compound 388]
IC50: 10 to 100 nM

CCC(=O)N[C@H](C(=O)N1CCN(C)CC1)[C@H](C)c1ccc(NC(=O)[C@@H](NC(=O)c2ccnn2CC)[C@@H](C)OC2CCCCC2)c(F)c1 [Compound 389]
IC50: 10 to 100 nM

CCC(=O)N[C@@H](C(=O)N1CCN(C)CC1)[C@@H](C)c1ccc(NC(=O)C(NC(=O)c2ccnn2CC)[C@@H](C)C2CCCCC2)c(F)c1 (some centres unmarked) [Compound 390]
IC50: < 10 nM

C[C@@H](c1ccc(NC(=O)[C@@H](NC(=O)C(F)(F)c2cccc(C#N)c2)C2CCCCCC2)c(F)c1)[C@@H](NC(=O)c1cnns1)C(=O)N1CCN(C)CC1 [Compound 391]
IC50: < 10 nM

CCC(=O)N[C@@H](C(=O)N1CCS(=O)(=O)CC1)[C@@H](C)c1ccc(NC(=O)[C@@H](NC(=O)c2ccnn2CC)[C@H]2CC[C@H](C)CC2)c(F)c1 [Compound 392]
IC50: 10 to 100 nM

CCC(=O)N[C@@H](C(=O)N1CCN(C)CC1)[C@@H](C)c1ccc(NC(=O)C(NC(=O)c2ccnn2C(C)C)C(C)c2ccc(F)cc2)c(F)c1 (some centres unmarked) [Compound 393]
IC50: 10 to 100 nM

CCC(=O)N[C@@H](C(=O)N1CCN(C)CC1)[C@@H](C)c1ccc(NC(=O)C(NC(=O)C(F)(F)c2ccc(OC)nc2)[C@@H](C)C2CCCCC2)c(F)c1 (some centres unmarked) [Compound 394]
IC50: < 10 nM

CCn1nccc1C(=O)N[C@H](C(=O)Nc1ccc([C@H](C)[C@@H](NC(=O)CC2CC2)C(=O)N2CCN(C)CC2)cc1F)[C@H]1CC[C@H](C)CC1 [Compound 396]
IC50: 10 to 100 nM

CCC(=O)N[C@@H](C(=O)N1CCN(C)CC1)[C@@H](C)c1ccc(NC(=O)[C@@H](NC(=O)c2conc2C2(C)COC2)[C@H]2CC[C@H](C)CC2)c(F)c1 [Compound 397]
IC50: 10 to 100 nM

CC(C)n1nccc1C(=O)N[C@H](C(=O)Nc1ccc([C@H](C)[C@@H](NC(=O)c2ccnn2C2CCC2)C(=O)N2CCN(C)CC2)cc1F)[C@H]1CC[C@H](C)CC1 [Compound 398]
IC50: < 10 nM

CC(C)n1nccc1C(=O)N[C@H](C(=O)Nc1ccc([C@H](C)[C@@H](NC(=O)c2ccnn2C2CC2)C(=O)N2CCN(C)CC2)cc1F)[C@H]1CC[C@H](C)CC1 [Compound 399]
IC50: < 10 nM

COc1cncc(C(F)(F)C(=O)N[C@H](C(=O)Nc2ccc([C@H](C)[C@@H](NC(=O)c3cnns3)C(=O)N3CCN(C)CC3)cc2F)[C@H]2CC[C@H](C)CC2)c1 [Compound 400]
IC50: < 10 nM

CCn1nccc1C(=O)N[C@H](C(=O)Nc1ccc([C@H](C)[C@@H](NC(=O)NC2CC2)C(=O)N2CCN(C)CC2)cc1)C1CCCCC1 [Compound 402]
IC50: 10 to 100 nM

CCn1nccc1C(=O)N[C@H](C(=O)Nc1ccc([C@H](C)[C@@H](NC(=O)NC2CC2)C(=O)N2CCN(C)CC2)cc1F)[C@H]1CC[C@H](C)CC1 [Compound 404]
IL-17A/A inhibition (pIC50): B (8>B≥7 as B)

CCC(=O)NC(C(=O)N1CCN(C)CC1)C(C)c1ccc(NC(=O)C(NC(=O)C(F)(F)c2cnc(OC)nc2)C2CCC(C)CC2)c(F)c1 (centres unmarked) [Compound 405]
IC50: 10 to 100 nM

CCn1nccc1C(=O)N[C@H](C(=O)Nc1ccc([C@H](C)[C@@H](NC(=O)C2(F)CC2)C(=O)N2CCN(C)CC2)cc1F)[C@H]1CC[C@H](C)CC1 [Compound 406]
IC50: 10 to 100 nM

CCn1cc(C(F)(F)C(=O)N[C@H](C(=O)Nc2ccc([C@H](C)[C@@H](NC(=O)c3cnns3)C(=O)N3CCN(C)CC3)cc2F)[C@H]2CC[C@H](C)CC2)cn1 [Compound 407]
IC50: < 10 nM

CCc1nonc1C(=O)N[C@H](C(=O)Nc1ccc([C@H](C)[C@@H](NC(=O)c2cnns2)C(=O)N2CCN(C)CC2)cc1F)[C@H]1CC[C@H](C)CC1 [Compound 408]
IC50: < 10 nM

CCc1ccoc1C(=O)N[C@H](C(=O)Nc1ccc([C@H](C)[C@@H](NC(=O)c2cnns2)C(=O)N2CCN(C)CC2)cc1F)[C@H]1CC[C@H](C)CC1 [Compound 409]
IC50: 10 to 100 nM

CCn1ncnc1C(=O)N[C@H](C(=O)Nc1ccc([C@H](C)[C@@H](NC(=O)c2cnns2)C(=O)N2CCN(C)CC2)cc1F)[C@H]1CC[C@H](C)CC1 [Compound 410]
IC50: 10 to 100 nM

CCc1nocc1C(=O)N[C@H](C(=O)Nc1ccc([C@H](C)[C@@H](NC(=O)c2cnns2)C(=O)N2CCN(C)CC2)cc1F)[C@H]1CC[C@H](C)CC1 [Compound 414]
IC50: < 10 nM

CCn1nccc1C(=O)N[C@H](C(=O)Nc1ccc([C@H](C)[C@@H](NC(=O)c2ccnn2C2CCOCC2)C(=O)N2CCC(C)(O)CC2)cc1F)[C@H]1CC[C@H](C)CC1 [Compound 417]
IC50: < 10 nM

CCC(=O)N[C@@H](C(=O)N1CCN(C)CC1)[C@@H](C)c1ccc(NC(=O)C(NC(=O)C(F)(F)c2cnc(OC)nc2)C2CCCCCC2)c(F)c1 (some centres unmarked) [Compound 418]
IC50: 10 to 100 nM

CCC(=O)N[C@@H](C(=O)N1CCN(C)CC1)[C@@H](C)c1ccc(NC(=O)C(NC(=O)C(F)(F)C2CCCCC2)[C@H]2CC[C@H](C)CC2)c(F)c1 (some centres unmarked) [Compound 419]
IC50: 10 to 100 nM

CCC(=O)N[C@@H](C(=O)N1CCN(C(C)(C)C)CC1)[C@@H](C)c1ccc(NC(=O)[C@@H](NC(=O)c2ccnn2CC)[C@H]2CC[C@H](C)CC2)c(F)c1 [Compound 420]
IC50: < 10 nM

CCC(=O)N[C@@H](C(=O)N1CCC(CC(=O)OC(C)(C)C)CC1)[C@@H](C)c1ccc(NC(=O)[C@@H](NC(=O)c2ccnn2CC)[C@H]2CC[C@H](C)CC2)c(F)c1 [Compound 421]
IC50: 10 to 100 nM

CCC(=O)N[C@@H](C(=O)N1CCC(CC(=O)O)CC1)[C@@H](C)c1ccc(NC(=O)[C@@H](NC(=O)c2ccnn2CC)[C@H]2CC[C@H](C)CC2)c(F)c1 [Compound 422]
IC50: 10 to 100 nM

CCC(=O)N[C@@H](C(=O)N1CCN(CCO)CC1)[C@@H](C)c1ccc(NC(=O)[C@@H](NC(=O)c2ccnn2CC)[C@H]2CC[C@H](C)CC2)c(F)c1 [Compound 423]
IC50: 10 to 100 nM

CCC(=O)N[C@@H](C(=O)N1CCN(C(C)(C)O)CC1)[C@@H](C)c1ccc(NC(=O)[C@@H](NC(=O)c2ccnn2CC)[C@H]2CC[C@H](C)CC2)c(F)c1 [Compound 424]
IL-17A/A inhibition (pIC50): B (8>B≥7 as B)

CCC(=O)N[C@@H](C(=O)N1C[C@@H](C)N[C@@H](C)C1)[C@@H](C)c1ccc(NC(=O)[C@@H](NC(=O)c2ccnn2CC)[C@H]2CC[C@H](C)CC2)c(F)c1 [Compound 425]
IC50: 10 to 100 nM

CCC(=O)N[C@@H](C(=O)N1CCN(CC)[C@H](C)C1)[C@@H](C)c1ccc(NC(=O)[C@@H](NC(=O)c2ccnn2CC)[C@H]2CC[C@H](C)CC2)c(F)c1 [Compound 426]
IC50: < 10 nM

CCC(=O)N[C@@H](C(=O)N1CCN(CC)[C@@H](C)C1)[C@@H](C)c1ccc(NC(=O)[C@@H](NC(=O)c2ccnn2CC)[C@H]2CC[C@H](C)CC2)c(F)c1 [Compound 427]
IC50: < 10 nM

CCn1nccc1C(=O)N[C@H](C(=O)Nc1ccc([C@H](C)[C@@H](NC(=O)c2cnns2)C(=O)N2CCN(CCO)CC2)cc1F)[C@H]1CC[C@H](C)CC1 [Compound 428]
IC50: 10 to 100 nM
